Source: patent publication US20230391760A1, “HETEROCYCLIC GLP-1 AGONISTS” (Gasherbrum Bio, Inc., priority 2020, published 2023)

Target: GLP-1 Receptor (Homo sapiens, UniProt P43220)
Assay: GLP-1R agonist cAMP stimulation assay (HEK293/GLP1R/CRE-LUC cells, cAMP dynamic 2 Kit)
Format: cell-based
Settings: HEK293/CRE-Luc cell line stably expressing the GLP-1 Receptor, 30 min at 37° C.
Summary of the method: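 HEK293 cells stably expressing human GLP-1R with CRE-luciferase, 1000 cells/well in DPBS with 0.5 mM IBMX and 0.1% BSA, treated with compound in 1/2-log serial dilution for 30 min at 37 °C. cAMP then detected by HTRF (cAMP-d2 plus anti-cAMP cryptate), 1 h at room temperature in the dark.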

Chain of GLP-1 Receptor (P43220 24-463, species assumed): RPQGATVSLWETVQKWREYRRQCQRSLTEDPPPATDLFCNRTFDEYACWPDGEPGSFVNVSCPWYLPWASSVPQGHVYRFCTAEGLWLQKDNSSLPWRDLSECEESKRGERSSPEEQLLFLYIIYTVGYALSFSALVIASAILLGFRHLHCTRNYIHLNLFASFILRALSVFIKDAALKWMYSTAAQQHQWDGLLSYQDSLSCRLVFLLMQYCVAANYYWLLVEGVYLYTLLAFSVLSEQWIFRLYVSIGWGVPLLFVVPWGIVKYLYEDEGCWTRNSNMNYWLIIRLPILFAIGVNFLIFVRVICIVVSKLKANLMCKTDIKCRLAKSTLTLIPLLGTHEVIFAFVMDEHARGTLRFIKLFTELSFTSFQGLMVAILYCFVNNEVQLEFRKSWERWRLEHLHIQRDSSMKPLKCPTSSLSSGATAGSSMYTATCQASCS

Compound | EC50
CC1(c2ccc(Cl)cc2)Oc2cccc(C3CCN(Cc4nc5cc(-c6nnc(C(F)(F)F)[nH]6)ccc5n4CC4(C#N)CC4)CC3)c2O1 (centres unmarked) [Compound 446, 1-{[2-({4-[2-(4-chlorophenyl)-2-methyl-2H-1,3-benzodioxol-4-yl]piperidin-1-yl}methyl)-5-[5-(trifluoromethyl)-4H-1,2,4-triazol-3-yl]-1H-1,3-benzodiazol-1-yl]methyl}cyclopropane-1-carbonitrile] | 0.12 nM
CC1(c2ccc(Cl)cc2F)Oc2cccc(C3CCN(Cc4nc5cc(-c6nnc(C(F)F)[nH]6)cnc5n4C[C@@H]4CCO4)CC3)c2O1 (stereo partly drawn) [Compound 244a, 4-[2-(4-chloro-2-fluorophenyl)-2-methyl-2H-1,3-benzodioxol-4-yl]-1-({6-[5-(difluoromethyl)-4H-1,2,4-triazol-3-yl]-3-{[(2S)-oxetan-2-yl]methyl}-3H-imidazo[4,5-b]pyridin-2-yl}methyl)piperidine] | 0.14 nM
O=C(NC1CC1)c1ccc2c(c1)nc(CN1CCC(c3cccc(OCc4ccc(Cl)cc4F)n3)CC1)n2C[C@@H]1CCO1 [Compound 396a, 2-[(4-{6-[(4-chloro-2-fluorophenyl)methoxy]pyridin-2-yl}piperidin-1-yl)methyl]-N-cyclopropyl-1-{[(2S)-oxetan-2-yl]methyl}-1H-1,3-benzodiazole-5-carboxamide] | 3.2 nM
C[C@]1(c2ccc(Cl)cc2F)Oc2cccc(C3CCN(Cc4nc5cc(-c6nnc(C(F)F)[nH]6)ncc5n4C[C@@H]4CCO4)CC3)c2O1 [Compound 360a, 4-[(2S)-2-(4-chloro-2-fluorophenyl)-2-methyl-2H-1,3-benzodioxol-4-yl]-1-({6-[5-(difluoromethyl)-4H-1,2,4-triazol-3-yl]-3-{[(2S)-oxetan-2-yl]methyl}-3H-imidazo[4,5-c]pyridin-2-yl}methyl)piperidine] | 0.0092 nM
CO[C@@H](C)Cn1c(CN2CCC(c3cccc4c3O[C@@](C)(c3ccc(Cl)cc3F)O4)CC2)nc2cc(-c3noc(=O)[nH]3)ncc21 [Compound 421a, 3-[2-({4-[(2S)-2-(4-chloro-2-fluorophenyl)-2-methyl-2H-1,3-benzodioxol-4-yl]piperidin-1-yl}methyl)-3-[(2S)-2-methoxypropyl]-3H-imidazo[4,5-c]pyridin-6-yl]-4,5-dihydro-1,2,4-oxadiazol-5-one] | 0.34 nM
O=C(Nc1ccc2c(c1)nc(CN1CCC(c3cccc(OCc4ccc(Cl)cc4F)n3)CC1)n2C[C@@H]1CCO1)C1(C2CC2)CCCO1 (stereo partly drawn) [Compound 199a, N-{2-[(4-{6-[(4-chloro-2-fluorophenyl)methoxy]pyridin-2-yl}piperidin-1-yl)methyl]-1-{[(2S)-oxetan-2-yl]methyl}-1H-1,3-benzodiazol-5-yl}-2-cyclopropyloxolane-2-carboxamide] | 7.4 nM
Fc1cc(Cl)ccc1COc1cccc(C2CCN(Cc3nc4cc(-c5nnc(C(F)(F)F)[nH]5)nnc4n3C[C@@H]3CCO3)CC2)n1 [Compound 486a, 2-[(4-chloro-2-fluorophenyl)methoxy]-6-{1-[(7-{[(2S)-oxetan-2-yl]methyl}-3-[5-(trifluoromethyl)-4H-1,2,4-triazol-3-yl]-7H-imidazo[4,5-c]pyridazin-6-yl)methyl]piperidin-4-yl}pyridine] | 0.038 nM
CC1(c2ccc(Cl)cn2)Oc2cccc(C3CCN(Cc4nc5cc(-c6nnc(C7CC7)[nH]6)ccc5n4C[C@@H]4CCO4)CC3)c2O1 (stereo partly drawn) [Compound 270a, 2-({4-[2-(5-chloropyridin-2-yl)-2-methyl-2H-1,3-benzodioxol-4-yl]piperidin-1-yl}methyl)-5-(5-cyclopropyl-4H-1,2,4-triazol-3-yl)-1-{[(2S)-oxetan-2-yl]methyl}-1H-1,3-benzodiazole] | 0.86 nM
C[C@]1(c2ccc(C#N)cc2F)Oc2cccc(C3CCN(Cc4nc5cc(-c6n[nH]c(C(F)(F)F)n6)ncc5n4C[C@@H]4CCO4)CC3)c2O1 [Compound 342a, 3-fluoro-4-[(2S)-2-methyl-4-{1-[(3-{[(2S)-oxetan-2-yl]methyl}-6-[5-(trifluoromethyl)-4H-1,2,4-triazol-3-yl]-3H-imidazo[4,5-c]pyridin-2-yl)methyl]piperidin-4-yl}-2H-1,3-benzodioxol-2-yl]benzonitrile] | 0.0064 nM
CO[C@H](C)Cn1c(CN2CCC(c3cccc4c3O[C@@](C)(c3ccc(C#N)cc3F)O4)CC2)nc2cc(-c3nnc(C(F)(F)F)[nH]3)ncc21 [Compound 442a, 3-fluoro-4-[(2S)-4-[1-({3-[(2R)-2-methoxypropyl]-6-[5-(trifluoromethyl)-4H-1,2,4-triazol-3-yl]-3H-imidazo[4,5-c]pyridin-2-yl}methyl)piperidin-4-yl]-2-methyl-2H-1,3-benzodioxol-2-yl]benzonitrile] | 0.033 nM
CO[C@H](C)Cn1c(CN2CCC(c3cccc4c3OC(C)(c3ccc(Cl)cn3)O4)CC2)nc2cc(-c3noc(=O)[nH]3)ncc21 (stereo partly drawn) [Compound 427a, 3-[2-({4-[2-(5-chloropyridin-2-yl)-2-methyl-2H-1,3-benzodioxol-4-yl]piperidin-1-yl}methyl)-3-[(2R)-2-methoxypropyl]-3H-imidazo[4,5-c]pyridin-6-yl]-4,5-dihydro-1,2,4-oxadiazol-5-one] | 0.76 nM
O=C(Nc1ccc2c(c1)nc(CN1CCC(c3cccc(OCc4ccc(Cl)cc4F)n3)CC1)n2C[C@@H]1CCO1)C1CCCOC1 (single isomer, unassigned) [Compound 154b] | 0.074 nM
Cc1ccnn1C(C)C(=O)Nc1ccc2c(c1)nc(CN1CCC(c3cccc(OCc4ccc(Cl)cc4F)n3)CC1)n2C[C@@H]1CCO1 (stereo partly drawn) [Compound 185a, N-{2-[(4-{6-[(4-chloro-2-fluorophenyl)methoxy]pyridin-2-yl}piperidin-1-yl)methyl]-1-{[(2S)-oxetan-2-yl]methyl}-1H-1,3-benzodiazol-5-yl}-2-(5-methyl-1H-pyrazol-1-yl)propanamide] | 5.3 nM
O=C(Nc1ccc2c(c1)nc(CN1CCC(c3cccc(OCc4ccc(Cl)cc4F)n3)CC1)n2C[C@@H]1CCO1)C1CCO1 (stereo partly drawn) [Compound 129a, N-{2-[(4-{6-[(4-chloro-2-fluorophenyl)methoxy]pyridin-2-yl}piperidin-1-yl)methyl]-1-{[(2S)-oxetan-2-yl]methyl}-1H-1,3-benzodiazol-5-yl}oxetane-2-carboxamide] | 0.56 nM
C[C@]1(c2ccc(Cl)cn2)Oc2cccc(C3CCN(Cc4nc5cc(-c6nnn[nH]6)nnc5n4C[C@@H]4CCO4)CC3)c2O1 [Compound 461a, 5-chloro-2-[(2S)-2-methyl-4-{1-[(7-{[(2S)-oxetan-2-yl]methyl}-3-(1H-1,2,3,4-tetrazol-5-yl)-7H-imidazo[4,5-c]pyridazin-6-yl)methyl]piperidin-4-yl}-2H-1,3-benzodioxol-2-yl]pyridine] | 0.23 nM
N#Cc1ccc(COc2cc(C3CCN(Cc4nc5cc(-c6nnc(C(F)(F)F)[nH]6)ncc5n4C[C@@H]4CCO4)CC3)ccc2F)c(F)c1 [Compound 471a, 3-fluoro-4-[(2-fluoro-5-{1-[(3-{[(2S)-oxetan-2-yl]methyl}-6-[5-(trifluoromethyl)-4H-1,2,4-triazol-3-yl]-3H-imidazo[4,5-c]pyridin-2-yl)methyl]piperidin-4-yl}phenoxy)methyl]benzonitrile] | 0.11 nM
O=C(Nc1ccc2c(c1)nc(CN1CCC(c3cccc(OCc4ccc(Cl)cc4F)n3)CC1)n2C[C@@H]1CCO1)C1CCCOC1 (stereo partly drawn) [Compound 154a, N-{2-[(4-{6-[(4-chloro-2-fluorophenyl)methoxy]pyridin-2-yl}piperidin-1-yl)methyl]-1-{[(2S)-oxetan-2-yl]methyl}-1H-1,3-benzodiazol-5-yl}oxane-3-carboxamide] | 0.13 nM
CC1(c2ccc(C#N)cc2F)Oc2cccc(C3CCN(Cc4nc5cc(-c6noc(=O)[nH]6)ncc5n4C[C@@H]4CCO4)CC3)c2O1 (stereo partly drawn) [Compound 341a, 3-fluoro-4-(2-methyl-4-{1-[(3-{[(2S)-oxetan-2-yl]methyl}-6-(5-oxo-4,5-dihydro-1,2,4-oxadiazol-3-yl)-3H-imidazo[4,5-c]pyridin-2-yl)methyl]piperidin-4-yl}-2H-1,3-benzodioxol-2-yl)benzonitrile] | 0.026 nM
O=C(Nc1ccc2c(c1)nc(CN1CCC(c3cccc(OCc4ccc(Cl)cc4F)n3)CC1)n2C[C@@H]1CCO1)C1CC12CCC2 (stereo partly drawn) [Compound 193a, N-{2-[(4-{6-[(4-chloro-2-fluorophenyl)methoxy]pyridin-2-yl}piperidin-1-yl)methyl]-1-{[(2S)-oxetan-2-yl]methyl}-1H-1,3-benzodiazol-5-yl}spiro[2.3]hexane-1-carboxamide] | 0.23 nM
CC1(c2ccc(Cl)cn2)Oc2cccc(C3CCN(Cc4nc5cc(-c6noc(=O)[nH]6)ncc5n4C[C@@H]4CCO4)CC3)c2O1 (stereo partly drawn) [Compound 343a, 3-[2-({4-[2-(5-chloropyridin-2-yl)-2-methyl-2H-1,3-benzodioxol-4-yl]piperidin-1-yl}methyl)-3-{[(2S)-oxetan-2-yl]methyl}-3H-imidazo[4,5-c]pyridin-6-yl]-4,5-dihydro-1,2,4-oxadiazol-5-one] | 0.079 nM
